Experimental data reported in patent publication US20250145585A1, “HETEROCYCLIC INHIBITORS OF IGF-1R FOR TREATMENT OF DISEASE” (HORIZON THERAPEUTICS IRELAND DAC, priority 2023, published 2025).

Target: T1, IGF-1R (Homo sapiens, UniProt P08069)
T1 construct: expressed in transfected cells
Assay: Example B-2: IGF-1R Assay (PathHunter cell lines, EC80 agonist challenge, chemiluminescent detection)
Format: cell-based
Conditions: PathHunter cells, compound 60 minutes at 37° C., EC80 agonist 3 hours; read-out: IC50, Biological Activity against IGF-1R (Table B2)
Method in brief: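 PathHunter cells were pre-incubated with compound for 60 min at 37° C (1% vehicle), then challenged with EC80 agonist for 3 h at room temperature. Chemiluminescent detection after 1 h gave % inhibition relative to EC80 and vehicle controls, from which IC50 was derived.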

T1 sequence (P08069 31-1367): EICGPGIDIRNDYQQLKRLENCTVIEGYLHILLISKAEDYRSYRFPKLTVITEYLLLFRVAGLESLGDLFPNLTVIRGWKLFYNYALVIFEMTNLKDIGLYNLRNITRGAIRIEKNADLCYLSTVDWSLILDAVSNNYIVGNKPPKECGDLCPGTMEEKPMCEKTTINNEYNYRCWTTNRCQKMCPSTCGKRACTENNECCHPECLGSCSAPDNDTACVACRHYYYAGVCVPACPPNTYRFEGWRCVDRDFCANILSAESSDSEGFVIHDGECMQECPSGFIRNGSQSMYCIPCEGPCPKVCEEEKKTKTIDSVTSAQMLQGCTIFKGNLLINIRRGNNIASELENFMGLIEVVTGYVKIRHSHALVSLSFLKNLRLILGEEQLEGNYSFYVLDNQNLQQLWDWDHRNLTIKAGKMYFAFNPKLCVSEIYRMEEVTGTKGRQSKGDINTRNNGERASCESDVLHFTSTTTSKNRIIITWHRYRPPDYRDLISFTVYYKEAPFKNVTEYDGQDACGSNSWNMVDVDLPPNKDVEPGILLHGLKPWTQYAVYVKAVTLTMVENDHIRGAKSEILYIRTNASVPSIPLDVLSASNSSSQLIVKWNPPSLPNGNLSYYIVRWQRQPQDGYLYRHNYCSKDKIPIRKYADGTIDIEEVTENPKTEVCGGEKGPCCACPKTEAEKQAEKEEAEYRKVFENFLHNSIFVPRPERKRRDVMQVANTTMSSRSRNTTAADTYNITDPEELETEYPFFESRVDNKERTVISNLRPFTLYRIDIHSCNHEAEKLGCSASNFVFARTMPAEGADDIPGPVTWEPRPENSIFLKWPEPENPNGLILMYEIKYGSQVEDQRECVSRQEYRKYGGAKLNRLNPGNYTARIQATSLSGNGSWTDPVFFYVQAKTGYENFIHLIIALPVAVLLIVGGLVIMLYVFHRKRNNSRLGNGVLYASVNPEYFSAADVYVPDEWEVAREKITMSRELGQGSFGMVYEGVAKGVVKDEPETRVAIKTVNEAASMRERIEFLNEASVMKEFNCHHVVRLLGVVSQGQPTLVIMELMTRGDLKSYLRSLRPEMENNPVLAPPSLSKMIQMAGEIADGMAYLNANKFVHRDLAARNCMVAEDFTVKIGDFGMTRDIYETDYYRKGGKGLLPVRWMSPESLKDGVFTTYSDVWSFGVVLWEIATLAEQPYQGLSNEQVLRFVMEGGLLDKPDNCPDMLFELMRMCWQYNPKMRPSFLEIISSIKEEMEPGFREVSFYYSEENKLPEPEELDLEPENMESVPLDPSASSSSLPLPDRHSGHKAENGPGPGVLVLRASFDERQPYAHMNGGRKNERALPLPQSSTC

Row | SMILES | IC50 [nM]
1 | COC(C)(C)CNc1cc(CN2C(=O)N(c3ccc4c(c3)N(S(C)(=O)=O)CC43CCC3)C(=O)C2(C)C)ccn1 [Compound 235, 1-((2-((2-methoxy-2-methylpropyl)amino)pyridin-4-yl)methyl)-5,5-dimethyl-3-(1′-(methylsulfonyl)spiro[cyclobutane-1,3′-indolin]-6′-yl)imidazolidine-2,4-dione] | 500 to 2000
2 | CO[C@H](C)CNc1cc(CN2C(=O)N(c3ccc4c(c3)N(S(C)(=O)=O)CC43CCC3)C(=O)C2(C)C)ccn1 [Compound 239, (R)-1-((2-((2-methoxypropyl)amino)pyridin-4-yl)methyl)-5,5-dimethyl-3-(1′-(methylsulfonyl)spiro[cyclobutane-1,3′-indolin]-6′-yl)imidazolidine-2,4-dione] | ≤ 500
3 | CC1(C)C(=O)N(c2ccc3c(c2)N(S(C)(=O)=O)CC32CCC2)C(=O)N1Cc1ccnc(N[C@@H]2C[C@@H]2F)c1 [Compound 240, 1-((2-(((1R,2S)-2-fluorocyclopropyl)amino)pyridin-4-yl)methyl)-5,5-dimethyl-3-(1′-(methylsulfonyl)spiro[cyclobutane-1,3′-indolin]-6′-yl)imidazolidine-2,4-dione] | ≤ 500
4 | CC1(C)CN(S(C)(=O)=O)c2cc(N3C(=O)N(Cc4ccnc(N[C@H]5CCOC[C@@H]5F)c4)C(C)(C)C3=O)ccc21 [Compound 241, 3-(3,3-dimethyl-1-(methylsulfonyl)indolin-6-yl)-1-((2-(((3R,4S)-3-fluorotetrahydro-2H-pyran-4-yl)amino)pyridin-4-yl)methyl)-5,5-dimethylimidazolidine-2,4-dione] | ≤ 500

Results, then the compound that gave them:

Row | IC50 [nM] | SMILES
5 | ≤ 500 | CC1(C)C(=O)N(c2ccc3c(c2)N(S(C)(=O)=O)CC32CCC2)C(=O)N1Cc1ccnc(NCC2CC2(F)F)c1 (stereo not shown) [Compound 232, 1-((2-(((2,2-difluorocyclopropyl)methyl)amino)pyridin-4-yl)methyl)-5,5-dimethyl-3-(1′-(methylsulfonyl)spiro[cyclobutane-1,3′-indolin]-6′-yl)imidazolidine-2,4-dione]
6 | ≤ 500 | CC1(C)C(=O)N(c2ccc3c(c2)N(S(C)(=O)=O)CC32CCC2)C(=O)N1Cc1ccnc(NCC23CCC(CC2)OC3)c1 [Compound 233, 1-((2-(((2-oxabicyclo[2.2.2]octan-4-yl)methyl)amino)pyridin-4-yl)methyl)-5,5-dimethyl-3-(1′-(methylsulfonyl)spiro[cyclobutane-1,3′-indolin]-6′-yl)imidazolidine-2,4-dione]
7 | ≤ 500 | CC1(C)C(=O)N(c2ccc3c(c2)N(C(=O)C2CC2)CC32CCC2)C(=O)N1Cc1ccnc(NC2C3COCC32)c1 (stereo not shown) [Compound 234, 1-((2-((3-oxabicyclo[3.1.0]hexan-6-yl)amino)pyridin-4-yl)methyl)-3-(1′-(cyclopropanecarbonyl)spiro [cyclobutane-1,3′-indolin]-6′-yl)-5,5-dimethylimidazolidine-2,4-dione]
8 | ≤ 500 | CC1(C)C(=O)N(c2ccc3c(c2)N(C(=O)C2CC2)CC32CCC2)C(=O)N1Cc1ccnc(N[C@H]2CCOC2)c1 [Compound 236, (S)-3-(1′-(cyclopropanecarbonyl)spiro [cyclobutane-1,3′-indolin]-6′-yl)-5,5-dimethyl-1-((2-((tetrahydrofuran-3-yl)amino)pyridin-4-yl)methyl)imidazolidine-2,4-dione]
9 | ≤ 500 | CC1(C)C(=O)N(c2ccc3c(c2)N(C(=O)C2CC2)CC32CCC2)C(=O)N1Cc1ccnc(NC2CCOCC2)c1 [Compound 237, 3-(1′-(cyclopropanecarbonyl)spiro [cyclobutane-1,3′-indolin]-6′-yl)-5,5-dimethyl-1-((2-((tetrahydro-2H-pyran-4-yl)amino)pyridin-4-yl)methyl)imidazolidine-2,4-dione]
10 | ≤ 500 | CO[C@@H](C)CNc1cc(CN2C(=O)N(c3ccc4c(c3)N(S(C)(=O)=O)CC43CCC3)C(=O)C2(C)C)ccn1 [Compound 238, (S)-1-((2-((2-methoxypropyl)amino)pyridin-4-yl)methyl)-5,5-dimethyl-3-(1′-(methylsulfonyl)spiro[cyclobutane-1,3′-indolin]-6′-yl)imidazolidine-2,4-dione]
